Here are results for 16 compounds from patent US20250163077A1, “MEMBRANE-ASSOCIATED TYROSINE- AND THREONINE-SPECIFIC CDC2-INHIBITORY KINASE (PKMYT1) INHIBITORS AND USES THEREOF” (Insilico Medicine IP Limited, priority 2022, published 2025).

Assay [1] concerns the target PKMYT1 (Homo sapiens (Human), UniProt Q99640). The assay can be described thus: PKMYT1 HTRF Assay. It counts as binding. To be noted: Tracer 178, compound 10 μM to 0.5 nM, read-out: MYT1 HTRF IC50. As to the method: Compound serial dilution is performed by Echo, and the final concentrations vary from 10 μM to 0.5 nM. This was filled by the addition of 5 μL/well of Enzyme solution to the assay plate containing the compound. The plate was centrifuged at 1000 rpm for 1 minute, and incubate 15 minutes at 25° C. […] Next 5 μL GST-Tb was added into the assay plate, the plate was centrifuged at 1000 rpm for 1 minute, and incubate for 15 minutes at 25° C. The assay plate was read on Envision.
Background: Time-resolved FRET reads energy transfer from a long-lived donor to a nearby acceptor.

The target of assay [2] is WEE1 (Homo sapiens (Human), UniProt P30291). The assay can be described thus: WEE1 ADP-Glo Assay. To be noted: compound 10 μM to 0.5 nM. It counts as biochemical. The protocol: Compound serial dilution is performed by Echo, and the final concentrations vary from 10 μM to 0.5 nM. This was filled by the addition of 5 μL/well of Enzyme solution to the assay plate containing the compound. The plate was centrifuged at 1000 rpm for 1 minute, and incubate 15 minutes at 25° C. Then 5 μL/well of substrate solution was added to initiate the reaction, and incubate for 60 minutes at 25° C. Next 10 μL kinase detection reagent was added into the assay plate, the plate was centrifuged at 1000 rpm for 1 minute, and incubate for 60 minutes at […]. The assay plate was read on Envision for US LUM as RLU.
Sequence of WEE1 (P30291 whole entry): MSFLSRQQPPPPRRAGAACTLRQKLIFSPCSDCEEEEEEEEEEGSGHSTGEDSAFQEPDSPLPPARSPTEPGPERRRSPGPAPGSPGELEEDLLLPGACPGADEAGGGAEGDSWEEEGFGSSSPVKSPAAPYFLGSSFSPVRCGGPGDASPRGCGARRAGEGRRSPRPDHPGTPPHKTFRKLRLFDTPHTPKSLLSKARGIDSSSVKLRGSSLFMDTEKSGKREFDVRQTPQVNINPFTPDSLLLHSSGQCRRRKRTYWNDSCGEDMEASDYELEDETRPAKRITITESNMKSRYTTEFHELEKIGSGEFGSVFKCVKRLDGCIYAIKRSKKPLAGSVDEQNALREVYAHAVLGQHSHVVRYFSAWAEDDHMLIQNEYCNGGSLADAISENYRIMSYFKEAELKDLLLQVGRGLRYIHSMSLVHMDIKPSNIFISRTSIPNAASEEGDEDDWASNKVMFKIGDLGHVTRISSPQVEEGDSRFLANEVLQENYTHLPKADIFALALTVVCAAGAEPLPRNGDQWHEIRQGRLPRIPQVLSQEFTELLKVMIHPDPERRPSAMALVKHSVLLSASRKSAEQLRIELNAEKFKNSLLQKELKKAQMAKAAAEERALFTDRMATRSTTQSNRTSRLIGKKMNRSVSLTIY
For orientation: ADP-Glo first removes unused ATP, then detects ADP through luciferase.

A value given as a limit tells only on which side of the number the result lay.

Sequence of PKMYT1 (Q99640 whole entry): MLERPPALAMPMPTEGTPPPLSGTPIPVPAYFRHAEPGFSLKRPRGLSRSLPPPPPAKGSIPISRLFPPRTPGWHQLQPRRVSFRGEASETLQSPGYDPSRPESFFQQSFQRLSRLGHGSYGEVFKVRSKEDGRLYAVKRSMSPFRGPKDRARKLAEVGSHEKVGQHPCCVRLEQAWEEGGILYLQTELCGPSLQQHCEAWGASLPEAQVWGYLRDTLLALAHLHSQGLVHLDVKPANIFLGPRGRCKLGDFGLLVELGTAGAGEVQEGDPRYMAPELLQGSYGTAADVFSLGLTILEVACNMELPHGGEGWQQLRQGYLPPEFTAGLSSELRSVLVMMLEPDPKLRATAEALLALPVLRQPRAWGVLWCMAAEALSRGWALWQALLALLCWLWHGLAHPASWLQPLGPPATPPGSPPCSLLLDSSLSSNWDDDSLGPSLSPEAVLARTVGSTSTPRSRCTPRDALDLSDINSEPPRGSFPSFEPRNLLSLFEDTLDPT

The term IC50 denotes the point on the concentration scale where inhibition reaches its midpoint. In the case of `Cc1ccc(O)c(C)c1-n1c(N)c(C(=O)N2CCc3ncsc3C2)c2nc(C)c(C)nc21` [Example 5, (6-amino-5-(3-hydroxy-2,6-dimethylphenyl)-2,3-dimethyl-5H-pyrrolo[2,3-b]pyrazin-7-yl)(6,7-dihydrothiazolo[5,4-c]pyridin-5(4H)-yl)methanone], the figures for the IC50 in assay [1] and in assay [2] were 10 to 50 nM and more than 10000 nM, respectively.

For `Cc1ccc(O)c(C)c1-n1c(N)c(C(=O)N2CCc3nn(C)cc3C2)c2nc(C)c(C)nc21` [Example 6, (6-amino-5-(3-hydroxy-2,6-dimethylphenyl)-2,3-dimethyl-5H-pyrrolo[2,3-b]pyrazin-7-yl)(2-methyl-2,4,6,7-tetrahydro-5H-pyrazolo[4,3-c]pyridin-5-yl)methanone], the results for the half-inhibitory concentration (IC50) in assay [1] and in assay [2] were 10 to 50 nM and more than 10000 nM, respectively.

As for `Cc1ccc(O)c(C)c1-n1c(N)c(C(=O)N2CCc3ncccc3C2)c2nc(C)c(C)nc21` [Example 7, (6-amino-5-(3-hydroxy-2,6-dimethylphenyl)-2,3-dimethyl-5H-pyrrolo[2,3-b]pyrazin-7-yl)(7,8-dihydro-1,6-naphthyridin-6(5H)-yl)methanone], the values for the IC50 in assay [1] and in assay [2] were less than 10 nM and more than 10000 nM, respectively.

On to `Cc1ccc(O)c(C)c1-n1c(N)c(C(=O)N2CCc3ncsc3C2)c2cc(Cl)cnc21` [Example 9, (2-amino-5-chloro-1-(3-hydroxy-2,6-dimethylphenyl)-1H-pyrrolo[2,3-b]pyridin-3-yl)(6,7-dihydrothiazolo[5,4-c]pyridin-5(4H)-yl)methanone], for which the IC50 in assay [1] is 10 to 50 nM; in assay [2] it was more than 10000 nM.

As for `Cc1nc2n(n1)CCN(C(=O)c1c(N)n(-c3c(C)ccc(O)c3C)c3ncc(Cl)cc13)C2` [Example 10, (2-amino-5-chloro-1-(3-hydroxy-2,6-dimethylphenyl)-1H-pyrrolo[2,3-b]pyridin-3-yl)(2-methyl-5,6-dihydro-[1,2,4]triazolo[1,5-a]pyrazin-7(8H)-yl)methanone], the values for the IC50 in assay [1] and in assay [2] were 10 to 50 nM and more than 10000 nM, respectively.

In the case of `Cc1cc2n(n1)CCN(C(=O)c1c(N)n(-c3c(C)ccc(O)c3C)c3ncc(Cl)cc13)C2` [Example 11, (2-amino-5-chloro-1-(3-hydroxy-2,6-dimethylphenyl)-1H-pyrrolo[2,3-b]pyridin-3-yl)(2-methyl-6,7-dihydropyrazolo[1,5-a]pyrazin-5(4H)-yl)methanone], the IC50 in assay [1] was 10 to 50 nM; in assay [2], more than 10000 nM.

`Cc1ccc(O)c(C)c1-n1c(N)c(C(=O)N2CCn3nc(C(F)(F)F)nc3C2)c2cc(Cl)cnc21` [Example 12, (2-amino-5-chloro-1-(3-hydroxy-2,6-dimethylphenyl)-1H-pyrrolo[2,3-b]pyridin-3-yl)(2-(trifluoromethyl)-5,6-dihydro-[1,2,4]triazolo[1,5-a]pyrazin-7(8H)-yl)methanone]: the IC50 in assay [1] was 10 to 50 nM; in assay [2], more than 10000 nM.

On to `Cc1ccc(O)c(C)c1-n1c(N)c(C(=O)N2CCn3ncc(CO)c3C2)c2nc(C)c(C)nc21` [Example 16, (6-amino-5-(3-hydroxy-2,6-dimethylphenyl)-2,3-dimethyl-5H-pyrrolo[2,3-b]pyrazin-7-yl)(3-(hydroxymethyl)-6,7-dihydropyrazolo[1,5-a]pyrazin-5(4H)-yl)methanone], for which the half-maximal inhibitory concentration (IC50) is less than 10 nM in assay [1] and more than 10000 nM in assay [2].

In the case of `Cc1ccc(O)c(C)c1-n1c(N)c(C(=O)N2CCn3nc(C(C)(C)O)cc3C2)c2nc(C)c(C)nc21` [Example 19], in assay [1], the IC50 was 500 to 5000 nM.

As for `Cc1ccc(O)c(C)c1-n1c(N)c(C(=O)N2CCn3nccc3C2C)c2nc(C)c(C)nc21` (stereo not drawn) [Example 26, (6-amino-5-(3-hydroxy-2,6-dimethylphenyl)-2,3-dimethyl-5H-pyrrolo[2,3-b]pyrazin-7-yl)(4-methyl-6,7-dihydropyrazolo[1,5-a]pyrazin-5(4H)-yl)methanone], the values for the IC50 in assay [1] and in assay [2] were 500 to 5000 nM and more than 10000 nM, respectively.

Consider `Cc1ccc(O)c(C)c1-n1c(N)c(C(=O)N2CCn3c(nnc3C(F)(F)F)C2)c2cc(Cl)cnc21` [Example 27, (2-amino-5-chloro-1-(3-hydroxy-2,6-dimethylphenyl)-1H-pyrrolo[2,3-b]pyridin-3-yl)(3-(trifluoromethyl)-5,6-dihydro-[1,2,4]triazolo[4,3-a]pyrazin-7(8H)-yl)methanone], for which the figures for the 50% inhibitory concentration (IC50) in assay [1] and in assay [2] were 50 to 500 nM and more than 10000 nM, respectively.

In the case of `Cc1ccc(O)c(Cl)c1-n1c(N)c(C(=O)N2CCn3nccc3C2)c2nc(C)c(C)nc21` [Example 28, (6-amino-5-(2-chloro-3-hydroxy-6-methylphenyl)-2,3-dimethyl-5H-pyrrolo[2,3-b]pyrazin-7-yl)(6,7-dihydropyrazolo[1,5-a]pyrazin-5(4H)-yl)methanone], the figures for the IC50 in assay [1] and in assay [2] were less than 10 nM and 5430 nM, respectively.

With `Cc1cc(F)c(O)c(C)c1-n1c(N)c(C(=O)N2CCn3nccc3C2)c2nc(C)c(C)nc21` [Example 29, (6-amino-5-(4-fluoro-3-hydroxy-2,6-dimethylphenyl)-2,3-dimethyl-5H-pyrrolo[2,3-b]pyrazin-7-yl)(6,7-dihydropyrazolo[1,5-a]pyrazin-5(4H)-yl)methanone], the IC50 in assay [1] was 10 to 50 nM; in assay [2], more than 10000 nM.

Regarding `C=Cc1cnc2c(n1)c(C(=O)N1CCn3nccc3C1)c(N)n2-c1c(C)ccc(O)c1C` [Example 33, (6-amino-5-(3-hydroxy-2,6-dimethylphenyl)-2-vinyl-5H-pyrrolo[2,3-b]pyrazin-7-yl)(6,7-dihydropyrazolo[1,5-a]pyrazin-5(4H)-yl)methanone], the half-inhibitory concentration (IC50) was 10 to 50 nM in assay [1] and more than 10000 nM in assay [2].

With `Cc1ccc(O)c(C)c1-n1c(N)c(C(=O)N2CCn3nccc3C2)c2nc(C(F)(F)F)ncc21` [Example 38, (6-amino-5-(3-hydroxy-2,6-dimethylphenyl)-2-(trifluoromethyl)-5H-pyrrolo[3,2-d]pyrimidin-7-yl)(6,7-dihydropyrazolo[1,5-a]pyrazin-5(4H)-yl)methanone], the IC50 in assay [1] is 50 to 500 nM; in assay [2] it was more than 10000 nM.

For `CC#Cc1nc2c(C(=O)N3CCn4nccc4C3)c(N)n(-c3c(C)ccc(O)c3C)c2nc1C` [Example 40, (6-amino-5-(3-hydroxy-2,6-dimethylphenyl)-3-methyl-2-(prop-1-yn-1-yl)-5H-pyrrolo[2,3-b]pyrazin-7-yl)(6,7-dihydropyrazolo[1,5-a]pyrazin-5(4H)-yl)methanone], in assay [1], the IC50 fell in the range of 10 to 50 nM.
